In patent US20230330093A1, “APPLICATION OF NITROGEN-CONTAINING SATURATED HETEROCYCLIC COMPOUND” (SHANGHAI PHARMACEUTICALS HOLDING CO., LTD., priority 2020, published 2023):

Tested on: cynomolgus monkeys
Experiment: 4-week safety study: serum biochemistry
Format: in vivo
Experimental: […] (1) Hematological and coagulation index examination were performed using a Bayer ADVIA2120 (Germany) and a Sysmex CA-1500 (Japan). (2) The serum biochemical examination was assessed using a HITACHI 7080 automated analyzer (Japan) and an Easylyte PLUS electrolyte analyzer (MEDICA, America). (3) The 24-h pooled urine of each animal was collected by a tray under each cage. Urinalysis was carried out using Uritest-300 (China). (4) The 24-h pooled faeces of each monkey were collected by a tray under each cage. Fecal occult blood was detected. (5) ACCESS 2 Chemiluminescence immunoassay was used for myocardial troponin (TropI, non-GLP) test.

COC(=O)NCCCn1nc([C@@H](C)N(C(=O)[C@H]2CNCCO2)C2CC2)c2ccc(C)nc21 [compound of Formula I]
CREA (Male, 20 mg/kg, d0): 64.2 ± 7.2 µM
K (Male, 20 mg/kg, d0): 5.1 ± 0.3 mmol/L
Na (Male, 20 mg/kg, d0): 148.7 ± 2.0 mmol/L
BUN (Male, 20 mg/kg, d14): 4.8 ± 0.5 mmol/L
CHOL (Male, 20 mg/kg, d14): 2.6 ± 0.4 mmol/L
CPK (Male, 20 mg/kg, d14): 128.2 ± 50.8 U · L^−1
CREA (Male, 20 mg/kg, d14): 65 ± 4.3 µM
K (Male, 20 mg/kg, d14): 4.6 ± 0.3 mmol/L
Na (Male, 20 mg/kg, d14): 148.7 ± 1.6 mmol/L
BUN (Male, 20 mg/kg, d26): 5.6 ± 0.3 mmol/L
CHOL (Male, 20 mg/kg, d26): 2.7 ± 0.5 mmol/L
CPK (Male, 20 mg/kg, d26): 154.4 ± 21.5 U · L^−1
CREA (Male, 20 mg/kg, d26): 64 ± 5.5 µM
K (Male, 20 mg/kg, d26): 5.4 ± 0.9 mmol/L
Na (Male, 20 mg/kg, d26): 147.9 ± 1.9 mmol/L
BUN (Male, 20 mg/kg, d 56): 5.2 ± 0.4 mmol/L
CHOL (Male, 20 mg/kg, d 56): 2.6 ± 0.1 mmol/L
CPK (Male, 20 mg/kg, d 56): 161.0 ± 87.7 U · L^−1
CREA (Male, 20 mg/kg, d 56): 64 ± 5.7 µM
K (Male, 20 mg/kg, d 56): 5.3 ± 1.1 mmol/L
Na (Male, 20 mg/kg, d 56): 144.6 ± 1.6 mmol/L
BUN (Male, 100 mg/kg, d0): 5.7 ± 0.5 mmol/L
CHOL (Male, 100 mg/kg, d0): 3.6 ± 0.4 mmol/L
CPK (Male, 100 mg/kg, d0): 161.4 ± 12.3 U · L^−1
CREA (Male, 100 mg/kg, d0): 66.6 ± 8.6 µM
K (Male, 100 mg/kg, d0): 4.8 ± 0.4 mmol/L
Na (Male, 100 mg/kg, d0): 149.1 ± 2.9 mmol/L
BUN (Male, 100 mg/kg, d14): 6.1 ± 1.5 mmol/L
CHOL (Male, 100 mg/kg, d14): 3.0 ± 0.6 mmol/L
CPK (Male, 100 mg/kg, d14): 213.4 ± 67.1 U · L^−1
CREA (Male, 100 mg/kg, d14): 63 ± 4.1 µM
K (Male, 100 mg/kg, d14): 4.8 ± 0.4 mmol/L
Na (Male, 100 mg/kg, d14): 148.3 ± 2.5 mmol/L
BUN (Male, 100 mg/kg, d26): 5.9 ± 1.0 mmol/L
CHOL (Male, 100 mg/kg, d26): 2.8 ± 0.3 mmol/L
CPK (Male, 100 mg/kg, d26): 179.8 ± 42.1 U · L^−1
CREA (Male, 100 mg/kg, d26): 63 ± 8.5 µM
K (Male, 100 mg/kg, d26): 5.2 ± 0.2 mmol/L
Na (Male, 100 mg/kg, d26): 147.1 ± 2.4 mmol/L
BUN (Male, 100 mg/kg, d 56): 5.7 ± 1.5 mmol/L
CHOL (Male, 100 mg/kg, d 56): 2.8 ± 0.6 mmol/L
CPK (Male, 100 mg/kg, d 56): 109.0 ± 9.9 U · L^−1
CREA (Male, 100 mg/kg, d 56): 58.5 ± 3.5 µM
K (Male, 100 mg/kg, d 56): 4.2 ± 0.0 mmol/L
Na (Male, 100 mg/kg, d 56): 146.5 ± 0.7 mmol/L
BUN (Male, 450 mg/kg, d0): 5.3 ± 0.6 mmol/L
CHOL (Male, 450 mg/kg, d0): 3.4 ± 0.5 mmol/L
CPK (Male, 450 mg/kg, d0): 140.4 ± 44.6 U · L^−1
CREA (Male, 450 mg/kg, d0): 68.6 ± 5.1 µM
K (Male, 450 mg/kg, d0): 5.2 ± 0.8 mmol/L
Na (Male, 450 mg/kg, d0): 148.4 ± 2.5 mmol/L
BUN (Male, 450 mg/kg, d14): 11.3 ± 6.7 mmol/L
CHOL (Male, 450 mg/kg, d14): 1.8 ± 0.3 mmol/L
CPK (Male, 450 mg/kg, d14): 290.2 ± 120.0 U · L^−1
CREA (Male, 450 mg/kg, d14): 116 ± 74.4 µM
K (Male, 450 mg/kg, d14): 5.0 ± 0.2 mmol/L
Na (Male, 450 mg/kg, d14): 146.4 ± 3.3 mmol/L
BUN (Male, 450 mg/kg, d26): 10.4 ± 3.1 mmol/L
CHOL (Male, 450 mg/kg, d26): 1.7 ± 0.3 mmol/L
CPK (Male, 450 mg/kg, d26): 133.6 ± 44.6 U · L^−1
CREA (Male, 450 mg/kg, d26): 79 ± 2.8 µM
K (Male, 450 mg/kg, d26): 5.2 ± 0.2 mmol/L
Na (Male, 450 mg/kg, d26): 144.3 ± 2.2 mmol/L
BUN (Male, 450 mg/kg, d 56): 5.1 ± 0.0 mmol/L
CHOL (Male, 450 mg/kg, d 56): 2.8 ± 0.3 mmol/L
CPK (Male, 450 mg/kg, d 56): 99.5 ± 7.8 U · L^−1
CREA (Male, 450 mg/kg, d 56): 66.5 ± 3.5 µM
K (Male, 450 mg/kg, d 56): 4.8 ± 0.8 mmol/L
Na (Male, 450 mg/kg, d 56): 145.3 ± 1.1 mmol/L
CREA (high-dose female that died early on d23, d14 data): 526 µM
CHOL (high-dose males): significantly decreased
Serum Na level (high-dose males, d26, statistically significant): decreased slightly
BUN (high-dose, both sexes): significantly increased
CPK (high-dose, both sexes): significantly increased
CREA (high-dose, both sexes): significantly increased
